Experimental data reported in PubChem BioAssay AID248 (DTP/NCI, 2004).
Where “and” joins values, the source holds several entries; their conditions need not be identical. Equal entries are not always repeated. Inconclusive results and toxic doses are left out.

Tested on: L1210 leukemia ip in BDF1 mice, survival T/C
Test: NCI In Vivo Anticancer Drug Screen. Data for tumor model L1210 Leukemia (intraperitoneal) in B6D2F1 (BDF1) mice
Conditions: endpoint: mean survival time, higher = longer survival
How it was run: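 Transplantable tumor model; survival measured in treated vs vehicle control mice. Value = treated/control.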

[1] = dose: 100.0 mg/kg/injection, schedule: Q01DX001 (ip), vehicle: carboxymethylcellulose (CMC)
[2] = dose: 200.0 mg/kg/injection, schedule: Q01DX001 (ip), vehicle: carboxymethylcellulose (CMC)
[3] = dose: 400.0 mg/kg/injection, schedule: Q01DX001 (ip), vehicle: carboxymethylcellulose (CMC)
[4] = dose: 50.0 mg/kg/injection, schedule: Q01DX009 (ip), vehicle: saline with Tween-80
[5] = dose: 100.0 mg/kg/injection, schedule: Q01DX009 (ip), vehicle: saline with Tween-80
[6] = dose: 200.0 mg/kg/injection, schedule: Q01DX009 (ip), vehicle: saline with Tween-80
[7] = dose: 50.0 mg/kg/injection, schedule: Q01DX005 (ip), vehicle: saline
[8] = dose: 100.0 mg/kg/injection, schedule: Q01DX005 (ip), vehicle: saline
[9] = dose: 200.0 mg/kg/injection, schedule: Q01DX005 (ip), vehicle: saline
[10] = dose: 100.0 mg/kg/injection, schedule: Q01DX001 (ip), vehicle: saline
[11] = dose: 200.0 mg/kg/injection, schedule: Q01DX001 (ip), vehicle: saline
[12] = dose: 400.0 mg/kg/injection, schedule: Q01DX001 (ip), vehicle: saline
[13] = dose: 100.0 mg/kg/injection, schedule: Q04DX003 (ip), vehicle: Klucel (hydroxypropylcellulose) (HPC)
[14] = dose: 200.0 mg/kg/injection, schedule: Q04DX003 (ip), vehicle: Klucel (hydroxypropylcellulose) (HPC)
[15] = dose: 50.0 mg/kg/injection, schedule: Q01DX001 (ip), vehicle: saline

**Q.** `CCCC1C/C(=C\NC(N)=O)C(=O)O1` (centres undefined) was tested. Which T/C (dose: 100.0 mg/kg/injection, schedule: Q01DX005 (ip), vehicle: saline with Tween-80) did it give?
**A.** 100 % of control

**Q.** What about the T/C (dose: 100.0 mg/kg/injection, schedule: Q04DX003 (ip), vehicle: saline with Tween-80) of the same molecule?
**A.** 104 % of control

**Q.** And the T/C (dose: 200.0 mg/kg/injection, schedule: Q01DX005 (ip), vehicle: saline with Tween-80)?
**A.** 100 % of control

**Q.** What about the T/C (dose: 200.0 mg/kg/injection, schedule: Q04DX003 (ip), vehicle: saline with Tween-80) of the same molecule?
**A.** 96 % of control

**Q.** What about the T/C (dose: 400.0 mg/kg/injection, schedule: Q01DX005 (ip), vehicle: saline with Tween-80) of the same molecule?
**A.** 112 % of control

**Q.** What about the T/C (dose: 400.0 mg/kg/injection, schedule: Q04DX003 (ip), vehicle: saline with Tween-80) of the same molecule?
**A.** 101 % of control

**Q.** `Cc1ccc(S(=O)(=O)N2C=Cc3ccccc3CC2)cc1` was tested. Which T/C [1] did it give?
**A.** 107 % of control

**Q.** And the T/C [2]?
**A.** 100 % of control

**Q.** What about the T/C [3] of the same molecule?
**A.** 112 % of control

**Q.** Which results are given for `Nc1ncnc2cc[nH]c12`?
**A.** T/C (dose: 88.0 mg/kg/injection, schedule: Q01DX001 (ip), vehicle: carboxymethylcellulose (CMC)): 102 % of control and 104 % of control; T/C (dose: 133.0 mg/kg/injection, schedule: Q01DX001 (ip), vehicle: carboxymethylcellulose (CMC)): 96 % of control and 104 % of control; T/C [2]: 102 % of control and 106 % of control

**Q.** What does the source list for `CCN=C(NCC)c1ccc(NC(=O)Nc2ccc(NC(=O)Nc3ccc(C(=NCC)NCC)cc3)cc2)cc1`?
**A.** T/C (dose: 0.87 mg/kg/injection, schedule: Q01DX Z (ip), vehicle: water): 100 % of control; T/C (dose: 1.75 mg/kg/injection, schedule: Q01DX Z (ip), vehicle: water): 100 % of control; T/C (dose: 3.5 mg/kg/injection, schedule: Q01DX Z (ip), vehicle: water): 97 % of control; T/C (dose: 7.0 mg/kg/injection, schedule: Q01DX Z (ip), vehicle: water): 103 % of control

**Q.** How did the T/C (dose: 75.0 mg/kg/injection, schedule: Q01DX001 (ip), vehicle: carboxymethylcellulose (CMC)) turn out when `NC(CC(O)c1ccccc1)c1ccccc1` (centres undefined) was run?
**A.** 96 % of control

**Q.** How did the T/C [4] turn out when `CC1(C)SC(C(NC(=O)COc2ccccc2)C(=O)O)NC1C(=O)O` (centres undefined) was run?
**A.** 101 % of control

**Q.** What about the T/C [5] of the same molecule?
**A.** 95 % of control

**Q.** And the T/C [6]?
**A.** 88 % of control

**Q.** How did the T/C (dose: 50.0 mg/kg/injection, schedule: Q01DX001 (ip), vehicle: carboxymethylcellulose (CMC)) turn out when `CCOP(=O)(NC(C)(C)C)OCC` was run?
**A.** 107 % of control

**Q.** And the T/C [1]?
**A.** 107 % of control

**Q.** And the T/C [2]?
**A.** 105 % of control

**Q.** What about the T/C [3] of the same molecule?
**A.** 100 % of control

**Q.** `NS(=O)(=O)c1ccc(N=Nc2ncc(CC(NC3=CC(=O)C(=O)c4ccccc43)C(=O)O)[nH]2)cc1` (centres undefined) was tested. Which T/C (dose: 50.0 mg/kg/injection, schedule: Q01DX009 (ip), vehicle: saline) did it give?
**A.** 96 % of control

**Q.** And the T/C (dose: 100.0 mg/kg/injection, schedule: Q01DX009 (ip), vehicle: saline)?
**A.** 96 % of control

**Q.** And the T/C (dose: 200.0 mg/kg/injection, schedule: Q01DX009 (ip), vehicle: saline)?
**A.** 105 % of control

**Q.** `O=C(N/N=C/c1ccc2c(c1)OCO2)C(O)(c1ccccc1)c1ccccc1` was tested. Which T/C [1] did it give?
**A.** 106 % of control

**Q.** And the T/C [2]?
**A.** 95 % of control

**Q.** What about the T/C [3] of the same molecule?
**A.** 103 % of control

**Q.** With `Cn1cnc([N+](=O)[O-])c1/N=C/c1ccccc1` as the molecule, how does the T/C [7] read?
**A.** 98 % of control

**Q.** What about the T/C [8] of the same molecule?
**A.** 100 % of control

**Q.** What about the T/C [9] of the same molecule?
**A.** 104 % of control

**Q.** `COC(=O)Cc1ccc(Br)cc1` was tested. Which T/C [4] did it give?
**A.** 106 % of control

**Q.** What about the T/C [5] of the same molecule?
**A.** 98 % of control

**Q.** What about the T/C [6] of the same molecule?
**A.** 88 % of control

**Q.** Which results are given for `O=c1[nH]cnc2c1ncn2C1CCC(CO)C1` (centres undefined)?
**A.** T/C [1]: 100 % of control; T/C (dose: 177.0 mg/kg/injection, schedule: Q01DX001 (ip), vehicle: carboxymethylcellulose (CMC)): 98 % of control; T/C [2]: 96 % of control; T/C (dose: 266.0 mg/kg/injection, schedule: Q01DX001 (ip), vehicle: carboxymethylcellulose (CMC)): 98 % of control; T/C (dose: 600.0 mg/kg/injection, schedule: Q01DX001 (ip), vehicle: carboxymethylcellulose (CMC)): 100 % of control

**Q.** What does the source list for `COc1ccccc1NP1(=O)OCC(C)([N+](=O)[O-])CO1` (centres undefined)?
**A.** T/C [1]: 89 % of control; T/C [2]: 104 % of control; T/C [3]: 93 % of control

**Q.** `O=P(O)(N(CCCl)CCCl)N1CCN(P(=O)(O)N(CCCl)CCCl)CC1` was tested. Which T/C (dose: 10.0 mg/kg/injection, schedule: Q01DX015 (ip), vehicle: saline) did it give?
**A.** 110 % of control

**Q.** What about the T/C (dose: 30.0 mg/kg/injection, schedule: Q01DX015 (ip), vehicle: saline) of the same molecule?
**A.** 119 % of control

**Q.** And the T/C [10]?
**A.** 115 % of control

**Q.** What about the T/C [11] of the same molecule?
**A.** 113 % of control

**Q.** What about the T/C [12] of the same molecule?
**A.** 124 % of control

**Q.** How did the T/C (dose: 100.0 mg/kg/injection, schedule: Q04DX003 (ip), vehicle: acetone) turn out when `Cc1ccc(S(=O)(=O)c2ccc(Cl)cc2)cc1` was run?
**A.** 110 % of control

**Q.** What about the T/C (dose: 200.0 mg/kg/injection, schedule: Q04DX003 (ip), vehicle: acetone) of the same molecule?
**A.** 110 % of control

**Q.** What about the T/C (dose: 400.0 mg/kg/injection, schedule: Q04DX003 (ip), vehicle: acetone) of the same molecule?
**A.** 109 % of control

**Q.** What does the source list for `CC(=O)Nc1cc([N+](=O)[O-])cc(C)c1O`?
**A.** T/C [5]: 97 % of control; T/C [6]: 89 % of control

**Q.** With `Nc1nnnn1N(Cc1ccccc1)Cc1ccccc1` as the molecule, how does the T/C [13] read?
**A.** 96 % of control

**Q.** What about the T/C [14] of the same molecule?
**A.** 117 % of control

**Q.** For `CCOC(=N)CC(=O)OCC`, which T/C [15] is on record?
**A.** 101 % of control and 110 % of control

**Q.** What about the T/C (dose: 89.0 mg/kg/injection, schedule: Q01DX001 (ip), vehicle: saline) of the same molecule?
**A.** 101 % of control

**Q.** And the T/C [10]?
**A.** 104 % of control and 113 % of control

**Q.** And the T/C (dose: 133.0 mg/kg/injection, schedule: Q01DX001 (ip), vehicle: saline)?
**A.** 101 % of control

**Q.** What about the T/C [11] of the same molecule?
**A.** 95 % of control and 104 % of control and 231 % of control

**Q.** And the T/C (dose: 300.0 mg/kg/injection, schedule: Q01DX001 (ip), vehicle: saline)?
**A.** 98 % of control

**Q.** And the T/C [12]?
**A.** 95 % of control and 101 % of control

**Q.** How did the T/C [13] turn out when `CON(C)S(=O)(=O)c1ccccc1` was run?
**A.** 103 % of control

**Q.** What about the T/C [14] of the same molecule?
**A.** 97 % of control

**Q.** What about the T/C (dose: 400.0 mg/kg/injection, schedule: Q04DX003 (ip), vehicle: Klucel (hydroxypropylcellulose) (HPC)) of the same molecule?
**A.** 95 % of control

**Q.** What does the source list for `COC(=O)c1cc(C)cc([N+](=O)[O-])c1C`?
**A.** T/C [15]: 91 % of control; T/C [10]: 111 % of control; T/C [11]: 100 % of control; T/C [12]: 102 % of control

**Q.** Which results are given for `O=c1n(C2OC(CO)C(O)C2O)ccc2nccn12` (centres undefined)?
**A.** T/C (dose: 2.5 mg/kg/injection, schedule: Q01DX009 (ip), vehicle: saline): 98 % of control; T/C (dose: 3.13 mg/kg/injection, schedule: Q03HX024 (ip), vehicle: saline): 98 % of control; T/C (dose: 5.0 mg/kg/injection, schedule: Q01DX009 (ip), vehicle: saline): 95 % of control; T/C (dose: 6.25 mg/kg/injection, schedule: Q03HX024 (ip), vehicle: saline): 96 % of control; T/C (dose: 10.0 mg/kg/injection, schedule: Q01DX009 (ip), vehicle: saline): 98 % of control; T/C (dose: 12.5 mg/kg/injection, schedule: Q03HX024 (ip), vehicle: saline): 100 % of control; T/C (dose: 20.0 mg/kg/injection, schedule: Q01DX009 (ip), vehicle: saline): 106 % of control; T/C (dose: 25.0 mg/kg/injection, schedule: Q03HX024 (ip), vehicle: saline): 100 % of control; T/C (dose: 40.0 mg/kg/injection, schedule: Q01DX009 (ip), vehicle: saline): 101 % of control; T/C [7]: 95 % of control; T/C (dose: 50.0 mg/kg/injection, schedule: Q03HX024 (ip), vehicle: saline): 122 % of control; T/C [8]: 103 % of control; T/C [9]: 92 % of control; T/C (dose: 400.0 mg/kg/injection, schedule: Q01DX005 (ip), vehicle: saline): 94 % of control
